# Patent US20230278972A1, “SUBSTITUTED HALOALKYL SULFONANILIDE HERBICIDES” (FMC Corporation, priority 2020, published 2023)
# What was measured:
# Type in all cases: in vivo
# corn (Zea mays) = assay: Test A postemergence, corn; details: Postemergence
# Procedure, shortened: (§1)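 Whole-plant herbicidal screen in pots of loam blended with sand. Sprays used a surfactant-containing, non-phytotoxic solvent vehicle. Timing was preemergence soil-directed at planting or postemergence at the one- to two-leaf stage (2–10 cm).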
# [1] = tested on: ragweed (common ragweed, Ambrosia artemisiifolia); assay: Test A postemergence, ragweed; details: Postemergence
# Procedure, shortened: as §1
# kochia (Bassia scoparia) [2] = assay: Test A postemergence, kochia; details: Postemergence
# Procedure, shortened: as §1
# [3] = tested on: Ryegrass, Italian (Italian ryegrass, Lolium multiflorum); assay: Test A postemergence, Ryegrass, Italian; details: Postemergence
# Procedure, shortened: as §1
# [4] = tested on: wheat (Triticum aestivum); assay: Test A postemergence, wheat; details: Postemergence
# Procedure, shortened: (§2)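 Pots: loam soil/sand blend. Pre: directed soil spray at planting. Post: plants 2–10 cm, 1–2 leaf stage. Formulation: non-phytotoxic solvent + surfactant.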
# [5] = tested on: galium (catchweed bedstraw, Galium aparine); assay: Test A postemergence, galium; details: Postemergence
# Procedure, shortened: as §2
# [6] = tested on: Foxtail, Giant (giant foxtail, Setaria faberi); assay: Test A preemergence, Foxtail, Giant; details: Preemergence; for Plant response rating, Foxtail, Giant: 0 to 100 scale (0 no effect, 100 complete control); for Foxtail, Giant plant response rating: visual injury on 0 to 100 scale (0 no effect, 100 complete control), approximately 10 days
# Procedure, shortened: as §1
# [7] = tested on: pigweed (Amaranthus retroflexus); assay: Test A preemergence, pigweed; details: for Plant response rating, Pigweed: 0 to 100 scale (0 no effect, 100 complete control); for Pigweed plant response rating: visual injury on 0 to 100 scale (0 no effect, 100 complete control), approximately 10 days
# Procedure, shortened: as §2
# [8] = tested on: Foxtail, Giant (giant foxtail, Setaria faberi); assay: Test A postemergence, Foxtail, Giant; details: Postemergence
# Procedure, shortened: as §1
# [9] = tested on: pigweed (Amaranthus retroflexus); assay: Test A postemergence, pigweed; details: Postemergence
# Procedure, shortened: as §1
# [10] = tested on: barnyardgrass (Echinochloa crus-galli); assay: Test A preemergence, barnyardgrass; details: Preemergence; for Plant response rating, Barnyardgrass: 0 to 100 scale (0 no effect, 100 complete control); for Barnyardgrass plant response rating: visual injury on 0 to 100 scale (0 no effect, 100 complete control), approximately 10 days
# Procedure, shortened: as §1
# kochia (Bassia scoparia) [11] = assay: Test A preemergence, kochia; details: Preemergence; for Plant response rating, Kochia: 0 to 100 scale (0 no effect, 100 complete control); for Kochia plant response rating: visual injury on 0 to 100 scale (0 no effect, 100 complete control), approximately 10 days
# Procedure, shortened: as §1
# [12] = tested on: barnyardgrass (Echinochloa crus-galli); assay: Test A postemergence, barnyardgrass; details: Postemergence
# Procedure, shortened: as §2
# [13] = tested on: ragweed (common ragweed, Ambrosia artemisiifolia); assay: Test A preemergence, ragweed; details: Preemergence; for Plant response rating, Ragweed: 0 to 100 scale (0 no effect, 100 complete control); for Ragweed plant response rating: visual injury on 0 to 100 scale (0 no effect, 100 complete control), approximately 10 days
# Procedure, shortened: as §1
# [14] = tested on: blackgrass (Alopecurus myosuroides); assay: Test A postemergence, blackgrass; details: Postemergence
# Procedure, shortened: as §1
# [15] = tested on: Ryegrass, Italian (Italian ryegrass, Lolium multiflorum); assay: Test A preemergence, Ryegrass, Italian; details: Preemergence; for Plant response rating, Ryegrass, Italian: 0 to 100 scale (0 no effect, 100 complete control); for Ryegrass, Italian plant response rating: visual injury on 0 to 100 scale (0 no effect, 100 complete control), approximately 10 days
# Procedure, shortened: as §1
# [16] = 1000 g ai/ha, visual injury, 0 to 100 scale (0 no effect, 100 complete control), approx. 10 days
# [17] = 31 g ai/ha, visual injury on 0 to 100 scale (0 no effect, 100 complete control), approx. 10 days
# [18] = 125 g ai/ha, 0 to 100 scale (0 no effect, 100 complete control)
# [19] = 31 g ai/ha, visual injury, approx. 10 days
# [20] = 31 g ai/ha, 0 to 100 scale (0 no effect, 100 complete control)
# [21] = 500 g ai/ha, visual injury vs untreated controls after approx. 10 days, 0 to 100 scale (0 no effect, 100 complete control)
# [22] = 125 g ai/ha, visual injury, approx. 10 days
smiles,measurement,setting,value
Cc1ccc(C(=O)N2CCCCC2)cc1NS(=O)(=O)C(F)(F)F [Compound 259],"Plant response rating, Corn",corn (Zea mays); [16],10
same,"Plant response rating, Ragweed",[1]; [16],10
same,"Plant response rating, Kochia",kochia (Bassia scoparia) [2]; [16],40
same,"Plant response rating, Ryegrass, Italian",[3]; [16],10
same,"Plant response rating, Wheat",[4]; [16],0
same,"Plant response rating, Galium",[5]; [16],60
same,"Plant response rating, Foxtail, Giant",[6]; 1000 g ai/ha,90
same,"Plant response rating, Pigweed",[7]; 1000 g ai/ha,80
same,"Plant response rating, Foxtail, Giant",[8]; [16],0
same,"Plant response rating, Pigweed",[9]; [16],40
same,"Plant response rating, Barnyardgrass",[10]; 1000 g ai/ha,90
same,"Plant response rating, Kochia",kochia (Bassia scoparia) [11]; 1000 g ai/ha,40
same,"Plant response rating, Barnyardgrass",[12]; [16],0
same,"Plant response rating, Ragweed",[13]; 1000 g ai/ha,70
same,"Plant response rating, Blackgrass",[14]; [16],50
same,"Plant response rating, Ryegrass, Italian",[15]; 1000 g ai/ha,80
Cc1cc(C)c(N(COC(=O)c2ccccc2)S(=O)(=O)C(F)(F)F)cc1C1=NOC2(CCCC2)C1 [Compound 149],"Plant response rating, Corn",corn (Zea mays); [17],0
same,"Plant response rating, Corn",corn (Zea mays); [18],0
same,"Plant response rating, Ragweed",[1]; [17],0
same,"Plant response rating, Ragweed",[1]; [18],20
same,"Plant response rating, Kochia",kochia (Bassia scoparia) [2]; [17],0
same,"Plant response rating, Kochia",kochia (Bassia scoparia) [2]; [18],10
same,"Plant response rating, Ryegrass, Italian",[3]; [17],0
same,"Plant response rating, Ryegrass, Italian",[3]; [18],0
same,"Plant response rating, Wheat",[4]; [17],0
same,"Plant response rating, Wheat",[4]; [18],0
same,"Plant response rating, Galium",[5]; [17],0
same,"Plant response rating, Galium",[5]; [18],60
same,"Plant response rating, Foxtail, Giant",[6]; [19],30
same,"Foxtail, Giant plant response rating",[6]; 125 g ai/ha,80
same,"Plant response rating, Pigweed",[7]; [19],30
same,Pigweed plant response rating,[7]; 125 g ai/ha,70
same,"Plant response rating, Foxtail, Giant",[8]; [17],0
same,"Plant response rating, Foxtail, Giant",[8]; [18],30
same,"Plant response rating, Pigweed",[9]; [17],0
same,"Plant response rating, Pigweed",[9]; [18],40
same,"Plant response rating, Barnyardgrass",[10]; [19],0
same,Barnyardgrass plant response rating,[10]; 125 g ai/ha,0
same,"Plant response rating, Kochia",kochia (Bassia scoparia) [11]; [19],0
same,Kochia plant response rating,kochia (Bassia scoparia) [11]; 125 g ai/ha,0
same,"Plant response rating, Barnyardgrass",[12]; [20],10
same,"Plant response rating, Barnyardgrass",[12]; [18],40
same,"Plant response rating, Ragweed",[13]; [19],0
same,Ragweed plant response rating,[13]; 125 g ai/ha,0
same,"Plant response rating, Blackgrass",[14]; [20],0
same,"Plant response rating, Blackgrass",[14]; [18],20
same,"Plant response rating, Ryegrass, Italian",[15]; [19],50
same,"Ryegrass, Italian plant response rating",[15]; 125 g ai/ha,50
Cc1cc(F)c(C(=O)N(C)C)cc1N(S(=O)(=O)C(F)(F)F)S(=O)(=O)C(F)(F)F [Compound 216],"Plant response rating, Corn",corn (Zea mays); [18],30
same,Corn plant response rating,corn (Zea mays); [21],40
same,"Plant response rating, Ragweed",[1]; [18],10
same,Ragweed plant response rating,[1]; [21],60
same,"Plant response rating, Kochia",kochia (Bassia scoparia) [2]; [18],20
same,Kochia plant response rating,kochia (Bassia scoparia) [2]; [21],30
same,"Plant response rating, Ryegrass, Italian",[3]; [18],0
same,"Ryegrass, Italian plant response rating",[3]; [21],70
same,"Plant response rating, Wheat",[4]; [18],0
same,Wheat plant response rating,[4]; [21],70
same,"Plant response rating, Galium",[5]; [18],50
same,Galium plant response rating,[5]; [21],70
same,"Plant response rating, Foxtail, Giant",[6]; [22],20
same,"Plant response rating, Foxtail, Giant",[6]; 500 g ai/ha,90
same,"Plant response rating, Pigweed",[7]; [22],80
same,"Plant response rating, Pigweed",[7]; 500 g ai/ha,100
same,"Plant response rating, Foxtail, Giant",[8]; [18],0
same,"Foxtail, Giant plant response rating",[8]; [21],20
same,"Plant response rating, Pigweed",[9]; [18],30
same,Pigweed plant response rating,[9]; [21],70
same,"Plant response rating, Barnyardgrass",[10]; [22],40
same,"Plant response rating, Barnyardgrass",[10]; 500 g ai/ha,80
same,"Plant response rating, Kochia",kochia (Bassia scoparia) [11]; [22],100
same,"Plant response rating, Kochia",kochia (Bassia scoparia) [11]; 500 g ai/ha,90
same,"Plant response rating, Barnyardgrass",[12]; [18],0
same,Barnyardgrass plant response rating,[12]; [21],50
same,"Plant response rating, Ragweed",[13]; [22],0
same,"Plant response rating, Ragweed",[13]; 500 g ai/ha,30
same,"Plant response rating, Blackgrass",[14]; [18],0
same,Blackgrass plant response rating,[14]; [21],30
same,"Plant response rating, Ryegrass, Italian",[15]; [22],30
same,"Plant response rating, Ryegrass, Italian",[15]; 500 g ai/ha,90
"Cc1cc(C)c(C2=NOC3(C2)CC(C)CC(C)C3)cc1NS(=O)(=O)C(F)(F)F (single isomer, unassigned) [Compound 168]","Plant response rating, Corn",corn (Zea mays); [17],0
same,"Plant response rating, Corn",corn (Zea mays); [18],0
same,"Plant response rating, Ragweed",[1]; [17],0
same,"Plant response rating, Ragweed",[1]; [18],60
same,"Plant response rating, Kochia",kochia (Bassia scoparia) [2]; [17],0
same,"Plant response rating, Kochia",kochia (Bassia scoparia) [2]; [18],10
same,"Plant response rating, Ryegrass, Italian",[3]; [17],0
same,"Plant response rating, Ryegrass, Italian",[3]; [18],30
same,"Plant response rating, Wheat",[4]; [17],0
same,"Plant response rating, Wheat",[4]; [18],0
same,"Plant response rating, Galium",[5]; [17],70
same,"Plant response rating, Galium",[5]; [18],90
same,"Plant response rating, Foxtail, Giant",[6]; [19],0
same,"Foxtail, Giant plant response rating",[6]; 125 g ai/ha,0
same,"Plant response rating, Pigweed",[7]; [19],0
same,Pigweed plant response rating,[7]; 125 g ai/ha,10
same,"Plant response rating, Foxtail, Giant",[8]; [17],0
same,"Plant response rating, Foxtail, Giant",[8]; [18],10
same,"Plant response rating, Pigweed",[9]; [17],60
same,"Plant response rating, Pigweed",[9]; [18],80
same,"Plant response rating, Barnyardgrass",[10]; [19],0
same,Barnyardgrass plant response rating,[10]; 125 g ai/ha,60
same,"Plant response rating, Kochia",kochia (Bassia scoparia) [11]; [19],0
same,Kochia plant response rating,kochia (Bassia scoparia) [11]; 125 g ai/ha,20
same,"Plant response rating, Barnyardgrass",[12]; [17],30
same,"Plant response rating, Barnyardgrass",[12]; [18],70
same,"Plant response rating, Ragweed",[13]; [19],0
same,Ragweed plant response rating,[13]; 125 g ai/ha,0
same,"Plant response rating, Blackgrass",[14]; [17],0
same,"Plant response rating, Blackgrass",[14]; [18],10
same,"Plant response rating, Ryegrass, Italian",[15]; [19],0
same,"Ryegrass, Italian plant response rating",[15]; 125 g ai/ha,40
